Assay results from US8309721B2, “HSP90 inhibitory carbazole derivatives, compositions containing same and use thereof” (Sanofi, priority 2008, dated 2012).
pIC50: −log10 of the molar value. Where a name gives a salt, the structure may show the parent alone.

How the values were obtained:
Hsp82 = Hsp82 (Saccharomyces cerevisiae, UniProt P02829); experiment: Hsp82/ATPase test (malachite green or PK/LDH coupled method); type: biochemical; conditions: 1 μM Hsp82, 250 μM ATP, 37° C.; read-out: Hsp82 ATPase IC50
Experimental: The biochemical activity of the compounds can in particular be evaluated by means of the “Hsp82/ATPase” test described below: The inorganic phosphate released during the hydrolysis of ATP by the ATPase activity of Hsp82 is quantified by the malachite green method. In the presence of this reagent, formation of the inorganic phosphate-molybdate-malachite green complex, which absorbs at a wavelength of 620 nm, occurs. The products to be evaluated are incubated in a reaction volume of 30 μl, in the presence of 1 μM Hsp82 and of 250 μM of substrate (ATP) in a buffer composed of 50 mM Hepes-NaOH (pH 7.5), 1 mM DTT, 5 mM MgCl2 and 50 mM KCl at 37° C. for 60 min. In parallel, an inorganic phosphate range of between 1 and 40 μM is made up in the same buffer. […] After incubation at ambient temperature for 20 min, the absorbance of the various wells is measured using a microplate reader at 620 nm. The inorganic phosphate concentration of each sample is then calculated from the standard curve. The ATPase activity of Hsp82 is expressed as concentration of inorganic phosphate produced in 60 minutes. The effect of the various products tested is expressed as percentage inhibition of the ATPase activity. The formation of ADP due to the ATPase activity of Hsp82 was used to develop another method for evaluating the enzyme activity of this enzyme by application of an enzymatic coupling system involving pyruvate kinase (PK) and lactate dehydrogenase (LDH). In this kinetic-type spectrophotometric method, PK catalyses the formation of ATP and of pyruvate from phosphoenol pyruvate (PEP) and the ADP produced by Hsp82. The pyruvate formed, which is a substrate for LDH, is subsequently converted to lactate in the presence of NADH. In this case, the decrease in the NADH concentration, measured through the decrease in absorbance at the wavelength of 340 nm, is proportional to the concentration of ADP produced by Hsp82. The products tested are incubated in a reaction volume of 100 μl of buffer composed of 100 mM Hepes-NaOH (pH 7.5), 5 mM MgCl2, 1 mM DTT, 150 mM KCl, 0.3 mM NADH, 2.5 mM PEP and 250 μM ATP. This mixture is preincubated at 37° C. for 30 minutes before the addition of 3.77 units of LDH and 3.77 units of PK. The reaction is initiated by addition of the product to be evaluated, in varying concentrations, and of Hsp82, at the concentration of 1 μM. The enzymatic activity of Hsp82 is then measured continuously, in a microplate reader, at 37° C., at the wavelength of 340 nm. The initial rate of the reaction is obtained by measuring the slope of the tangent to the origin of the curve recorded. The enzymatic activity is expressed in μM of ADP formed per minute. The effect of the various products tested is expressed as percentage inhibition of the ATPase activity according to the codification below: […]

[1] = system: Her2 receptor expression at the surface of SKBr3 cells; experiment: phenotypic SKBr3/HER2 cell test (Her2 surface expression by flow cytometry); type: cell-based; conditions: Homo sapiens, SK-BR-3, 24 h incubation, inhibition of Her2 expression
Method in brief: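 SKBr3 cells (Her2-overexpressing adenocarcinoma) treated 24 h with compound at varying concentrations, then stained with PE-anti-Her2 antibody 30 min at 4° C; surface Her2 measured by flow cytometry. IC50 from nonlinear fit of % inhibition of Her2 expression versus concentration.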

Chain of Hsp82 (P02829 whole entry): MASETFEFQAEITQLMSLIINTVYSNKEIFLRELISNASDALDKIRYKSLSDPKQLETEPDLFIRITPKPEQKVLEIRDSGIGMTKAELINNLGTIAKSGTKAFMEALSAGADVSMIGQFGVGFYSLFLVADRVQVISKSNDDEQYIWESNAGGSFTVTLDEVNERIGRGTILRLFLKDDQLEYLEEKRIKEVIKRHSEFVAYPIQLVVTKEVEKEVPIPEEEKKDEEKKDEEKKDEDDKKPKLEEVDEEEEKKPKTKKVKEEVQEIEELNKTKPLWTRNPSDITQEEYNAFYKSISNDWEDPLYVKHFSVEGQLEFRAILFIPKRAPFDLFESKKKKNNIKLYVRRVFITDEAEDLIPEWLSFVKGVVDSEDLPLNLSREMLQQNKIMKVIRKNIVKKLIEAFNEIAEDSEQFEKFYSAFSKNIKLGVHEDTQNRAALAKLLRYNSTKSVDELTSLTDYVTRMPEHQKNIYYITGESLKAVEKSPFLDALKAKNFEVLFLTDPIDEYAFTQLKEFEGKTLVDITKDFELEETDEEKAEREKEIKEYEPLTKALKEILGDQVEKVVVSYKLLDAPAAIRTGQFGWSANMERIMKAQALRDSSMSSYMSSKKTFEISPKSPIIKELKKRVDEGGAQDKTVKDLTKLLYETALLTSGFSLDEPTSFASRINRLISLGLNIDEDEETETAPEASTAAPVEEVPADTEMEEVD

pIC50 (Hsp82) | pIC50 [1] | Structure (SMILES)
> 6.00 | > 6.00 | NC(=O)c1ccc(-n2c3ccccc3c3c(-c4nc5ccc(F)cc5[nH]4)cccc32)cc1NC(CO)CO [Example 52, 4-[4-(6-fluoro-1H-benzimidazol-2-yl)-9H-carbazol-9-yl]-2-(2-hydroxy-1-hydroxymethylethylamino)benzamide]
> 6.00 | > 6.00 | NC(=O)c1ccc(-n2c3ccccc3c3c(-c4nc5ccc(F)cc5[nH]4)cccc32)cc1NCCOCCO [Example 7, 4-[4-(6-fluoro-1H-benzimidazol-2-yl)-9H-carbazol-9-yl]-2-[2-(2-hydroxyethoxy)ethylamino]benzamide]
> 6.00 | > 6.00 | NC(=O)c1ccc(-n2c3ccccc3c3c(-c4ccc(N)nc4)cccc32)cc1N[C@H]1CC[C@H](O)CC1 [Example 20, 4-[4-(6-aminopyridin-3-yl)-9H-carbazol-9-yl]-2-[(4-trans-hydroxycyclohexyl)amino]benzamide]
> 6.00 | > 6.00 | CCN(CC)CCNc1cc(-n2c3ccccc3c3c(-c4nc5ccc(F)cc5[nH]4)cccc32)ccc1C(N)=O [Example 3, 2-(2-diethylaminoethylamino)-4-[4-(6-fluoro-1H-benzimidazol-2-yl)-9H-carbazol-9-yl]benzamide]
> 6.00 | > 6.00 | CC(=O)NCCNc1cc(-n2c3ccccc3c3c(-c4nc5ccc(F)cc5[nH]4)cccc32)ccc1C(N)=O [Example 17, 2-(2-acetylaminoethylamino)-4-[4-(6-fluoro-1H-benzimidazol-2-yl)-9H-carbazol-9-yl]benzamide]
5.00 to 6.00 | 5.00 to 6.00 | NC(=O)c1ccc(-n2c3ccccc3c3c(-c4cncc(OCc5ccccc5)c4)cccc32)cc1N[C@H]1CC[C@H](O)CC1 [Example 67, 4-{4-[5-(benzyloxy)pyridin-3-yl]-9H-carbazol-9-yl}-2-[(4-trans-hydroxycyclohexyl)amino]benzamide]
> 6.00 | > 6.00 | CC(O)CNc1cc(-n2c3ccccc3c3c(-c4nc5ccc(F)cc5[nH]4)cccc32)ccc1C(N)=O (racemic) [Example 40, 4-[4-(6-fluoro-1H-benzimidazol-2-yl)-9H-carbazol-9-yl]-2-(2(R,S)-hydroxypropylamino)benzamide]
> 6.00 | > 6.00 | NC(=O)c1ccc(-n2c3ccccc3c3c(-c4cnc5ccccc5c4)cccc32)cc1NCC[N+]1([O-])CCCC1 [Example 45, 2-[2-(1-oxypyrrolidin-1-yl)ethylamino]-4-[4-(quinolin-3-yl)-9H-carbazol-9-yl]benzamide]
> 6.00 | > 6.00 | NC(=O)c1ccc(-n2c3ccccc3c3c(-c4nc5ccc(F)cc5[nH]4)cccc32)cc1NCCO [Example 42, 4-[4-(6-fluoro-1H-benzimidazol-2-yl)-9H-carbazol-9-yl]-2-(2-hydroxyethylamino)benzamide]
> 6.00 | > 6.00 | CC(O)CCNc1cc(-n2c3ccccc3c3c(-c4nc5ccc(F)cc5[nH]4)cccc32)ccc1C(N)=O (racemic) [Example 37, 4-[4-(6-fluoro-1H-benzimidazol-2-yl)-9H-carbazol-9-yl]-2-[3(R,S)hydroxybutylamino)benzamide]
5.00 to 6.00 | > 6.00 | NCC(=O)O[C@H]1CC[C@H](Nc2cc(-n3c4ccccc4c4c(-c5nc6ccc(F)cc6[nH]5)cccc43)ccc2C(N)=O)CC1 [Example 25, trifluoroacetate of the 4-trans-{2-carbamoyl-5-[4-(6-fluoro-1H-benzimidazol-2-yl)-9H-carbazol-9-yl]phenylamino}cyclohexyl ester of aminoacetic acid]
5.00 to 6.00 | > 6.00 | CC(C)(C)OC(=O)CC(=O)O[C@H]1CC[C@H](Nc2cc(-n3c4ccccc4c4c(-c5nc6ccc(F)cc6[nH]5)cccc43)ccc2C(N)=O)CC1 [Example 15, tert-butyl and 4-{2-carbamoyl-5-[4-(6-fluoro-1H-benzimidazol-2-yl)-9H-carbazol-9-yl]phenylamino}cyclohexyl ester of malonic acid]
5.00 to 6.00 | 5.00 to 6.00 | Nc1n[nH]c2cc(-n3c4ccccc4c4c(-c5nc6ccc(F)cc6[nH]5)cccc43)ccc12 [Example 12, 6-[4-(6-fluoro-1H-benzimidazol-2-yl)-9H-carbazol-9-yl]-1H-indazol-3-ylamine]
> 6.00 | > 6.00 | NC(=O)c1ccc(-n2c3ccccc3c3c(-c4ccc(CO)nc4)cccc32)cc1N[C@H]1CC[C@H](O)CC1 [Example 29, 2-[(4-trans-hydroxycyclohexyl)amino]-4-{4-[6-(hydroxymethyl)pyridin-3-yl]-9H-carbazol-9-yl}benzamide]
> 6.00 | > 6.00 | COCCCNc1cc(-n2c3ccccc3c3c(-c4nc5ccc(F)cc5[nH]4)cccc32)ccc1C(N)=O [Example 38, 4-[4-(6-fluoro-1H-benzimidazol-2-yl)-9H-carbazol-9-yl]-2-(3-methoxypropylamino)benzamide]
> 6.00 | > 6.00 | NC(=O)CCNc1cc(-n2c3ccccc3c3c(-c4cnc5ccccc5c4)cccc32)ccc1C(N)=O [Example 34, 2-(2-carbamoylethylamino)-4-[4-(quinolin-3-yl)-9H-carbazol-9-yl]benzamide]
> 6.00 | > 6.00 | NC(=O)c1ccc(-n2c3ccccc3c3c(-c4nc5ccc(F)cc5[nH]4)cccc32)cc1NCCN1CCCC1 [Example 11, 4-[4-(6-fluoro-1H-benzimidazol-2-yl)-9H-carbazol-9-yl]-2-(2-pyrrolidin-1-ylethylamino)benzamide]
5.00 to 6.00 | 5.00 to 6.00 | NCC(CO)Oc1cc(-n2c3ccccc3c3c(-c4nc5ccc(F)cc5[nH]4)cccc32)ccc1C(N)=O (stereo not drawn) [Example 53, 2-(2-amino-1-hydroxymethylethyloxy)-4-[4-(6-fluoro-1H-benzimidazol-2-yl)-9H-carbazol-9-yl]benzamide]
5.00 to 6.00 | > 6.00 | CC(C)(O)CCNc1cc(-n2c3ccccc3c3c(-c4nc5ccc(F)cc5[nH]4)cccc32)ccc1C(N)=O [Example 61, 4-[4-(6-fluoro-1H-benzimidazol-2-yl)-9H-carbazol-9-yl]-2-(3-hydroxy-3-methylbutylamino)benzamide]
> 6.00 | > 6.00 | NC(=O)c1ccc(-n2c3ccccc3c3c(-c4nc5ccc(F)cc5[nH]4)cccc32)cc1NCCF [Example 62, 4-[4-(6-fluoro-1H-benzimidazol-2-yl)-9H-carbazol-9-yl]-2-(2-fluoroethylamino)benzamide]
> 6.00 |  | NC(=O)c1ccc(-n2c3ccccc3c3c(-c4cnc(N)nc4)cccc32)cc1NCCCO [Example 56, 4-[4-(2-aminopyrimidin-5-yl)-9H-carbazol-9-yl]-2-[(3-hydroxypropyl)amino]benzamide hydrochloride]

Structure (SMILES) | pIC50 (Hsp82) | pIC50 [1]
C[C@H](NC(=O)OC(C)(C)C)C(=O)O[C@H]1CC[C@H](Nc2cc(-n3c4ccccc4c4c(-c5nc6ccc(F)cc6[nH]5)cccc43)ccc2C(N)=O)CC1 [Example 22, 2(S)-tert-butoxycarbonylaminopropionic acid 4-trans-{2-carbamoyl-5-[4-(6-fluoro-1H-benzimidazol-2-yl)-9H-carbazol-9-yl]phenylamino}cyclohexyl ester] | 5.00 to 6.00 | > 6.00
CC(C)(C)OC(=O)NCC(=O)O[C@H]1CC[C@H](Nc2cc(-n3c4ccccc4c4c(-c5nc6ccc(F)cc6[nH]5)cccc43)ccc2C(N)=O)CC1 [Example 21, tert-butoxycarbonylaminoacetic acid 4-trans-{2-carbamoyl-5-[4-(6-fluoro-1H-benzimidazol-2-yl)-9H-carbazol-9-yl]phenylamino}cyclohexyl ester] | 5.00 to 6.00 | > 6.00
